Counter-ions that a name gives are not always drawn.
SMILES	melting point
CCOC(=O)C(C)(C)c1cccc(CN2CCC(CCCC(=O)c3ccc4c(c3)CCN(Cc3ccccc3)CC4)CC2)c1 (as salt: hydrochloride) [Example 153, Ethyl 2-methyl-2-[3-[[4-[4-[3-(phenylmethyl)-2,3,4,5-tetrahydro-1H-3-benzazepin-7-yl]-4-oxobutyl]-1-piperidinyl]methyl]phenyl]propionate Dihydrochloride]	146 to 148 °C
O=C(CCCC1CCN(Cc2cccc([N+](=O)[O-])c2)CC1)c1ccc2c(c1)CCN(Cc1ccccc1)CC2 (as salt: hydrochloride) [Example 154, 4-[1-[(3-Nitrophenyl)methyl]-4-piperidinyl-1-(3-(phenylmethyl)-2,3,4,5-tetrahydro-1H-3-benzazepin-7-yl]-1-butanone Dihydrochloride]	239 to 244 °C (dec.)
COc1cccc(CN2CCC(CCCC(=O)c3ccc4c(c3)CCN(Cc3ccccc3)CC4)CC2)c1 (as salt: hydrochloride) [Example 156, 4-[1-[(3-Methoxyphenyl)methyl]-4-piperidinyl]-1-[3-(phenylmethyl)-2,3,4,5-tetrahydro-1H-3-benzazepin-7-yl]-1-butanone Dihydrochloride]	215 to 218 °C (dec.)
O=C(CCCC1CCN(Cc2ccccc2Cl)CC1)c1ccc2c(c1)CCN(Cc1ccccc1)CC2 (as salt: hydrochloride) [Example 178, 4-[1-[(2-Chlorophenyl)methyl]-4-piperidinyl]-1-[3-(phenylmethyl)-2,3,4,5-tetrahydro-1H-3-benzazepin-7-yl]-1-butanone Dihydrochloride]	226 to 229 °C (dec.)
CC(=O)Nc1cccc(CN2CCC(CCCC(=O)c3ccc4c(c3)CCN(Cc3ccccc3)CC4)CC2)c1 (as salt: hydrochloride) [Example 179, N-[3-[[4-[4-[3-(Phenylmethyl)-2,3,4,5-tetrahydro-1H-3-benzazepin-7-yl]-4-oxobutyl]-1-piperidinyl]methyl]phenyl]acetamide Dihydrochloride]	179 to 187 °C
Cc1ccc(CN2CCc3ccc(C(=O)CCCC4CCN(Cc5ccc(F)cc5)CC4)cc3CC2)cc1 (as salt: hydrochloride) [Example 192, 4-[1-[(4-Fluorophenyl)methyl]-4-piperidinyl]-1-[3-[(4-methylphenyl)methyl]-2,3,4,5-tetrahydro-1H-3-benzazepin-7-yl]-1-butanone Dihydrochloride]	225 to 228 °C
Cc1ccc(CN2CCC(CCCC(=O)c3ccc4c(c3)CCN(Cc3ccccc3[N+](=O)[O-])CC4)CC2)cc1 (as salt: hydrochloride) [Example 198, 4-[1-[(4-Methylphenyl)methyl]-4-piperidinyl]-1-[3-[(2-nitrophenyl)methyl]-2,3,4,5-tetrahydro-1H-3-benzazepin-7-yl]-1-butanone Dihydrochloride]	164 to 167 °C
Cc1ccc(CN2CCC(CCCC(=O)c3ccc4c(c3)CCN(Cc3cccc(Cl)c3)CC4)CC2)cc1 (as salt: hydrochloride) [Example 202, 1-[3-[(3-Chlorophenyl)methyl]-2,3,4,5-tetprahydro-1H-3-benzazepin-7-yl]-4-[1-[(4-methylphenyl)methyl]-4-piperidinyl]-1-butanone Dihydrochloride]	195 to 198 °C
O=C(O)c1cccc(CN2CCC(CCCC(=O)c3ccc4c(c3)CCN(Cc3ccccc3)CC4)CC2)c1 (as salt: salt) [Example 158, 3-[[4-[4-[3-(Phenylmethyl)-2,3,4,5-tetrahydro-1H-benzazepin-7-yl]-4-oxobutyl)-1-piperidinyl]methyl]benzoic acid triethylamine Salt]	150 to 158 °C

Further lines, results first:

melting point	SMILES
208 to 210 °C	O=C(CCCCC1CCN(Cc2ccccc2)CC1)c1ccc2c(c1)CCN(Cc1ccccc1)CC2 (as salt: hydrochloride) [Example 209, 5-[1-(Phenylmethyl)-4-piperidinyl]-1-[3-(phenylmethyl)-2,3,4,5-tetrahydro-1H-3-benzazepin-7-yl]-1-pentanone Dihydrochloride]
213 to 216 °C (dec.)	Cc1ccccc1CN1CCC(CCCC(=O)c2ccc3c(c2)CCNCC3)CC1 (as salt: hydrochloride) [Example 236, 4-[1-[(2-Methylphenyl)methyl]-4-piperidinyl]-1-(2,3,4,5-tetrahydro-1H-3-benzazepin-7-yl)-1-butanone Dihydrochloride]
211 to 213 °C	CCN(CC)CCN1CCc2ccc(C(=O)CCCC3CCN(Cc4ccccc4C)CC3)cc2CC1 (as salt: hydrochloride) [Example 244, 1-[3-(2-Diethyaminoethyl)-2,3,4,5-tetrahydro-1H-3-benzazepin-7-yl]-4-[1-[(2-methylphenyl)methyl]-4-piperidinyl]-1-butanone Trihydrochloride]
201 to 220 °C (dec.)	Cc1ccccc1CN1CCc2ccc(C(=O)CCCC3CCN(Cc4ccccc4C(N)=O)CC3)cc2CC1 (as salt: hydrochloride) [Example 254, 2-[[4-[4-[3-[(2-Methylphenyl)methyl]-2,3,4,5-tetrahydro-1H-3-benzazepin-7-yl]-4-oxobutyl]-1-piperidinyl]methyl]benzamide Dihydrochloride]
192 to 203 °C (dec.)	Cc1ccccc1CN1CCc2ccc(C(=O)CCCC3CCNCC3)cc2CC1 (as salt: hydrochloride) [Example 255, 1-[3-(2-Methylphenyl)methyl]-2,3,4,5-tetrahydro-1H-3-benzazepin-7-yl]-4-(4-piperidinyl)-1-butanone Dihydrochloride]
186 to 193 °C (dec.)	Cc1ccccc1CN1CCc2ccc(C(=O)CCCC3CCN(Cc4ccccc4C(=O)N4CCN(C)CC4)CC3)cc2CC1 (as salt: hydrochloride) [Example 313, 4-[1-[[2-[(4-methyl-1-pipiperazinyl)carbonyl]phenyl]methyl]-4-piperidinyl]-1-[3[(2-methylphenyl)methyl]-2,3,4,5-tetrahydro-1H-3-benzazepin-7-yl]-1-butanone Trihydrochloride]
168 to 172 °C	Cc1ccccc1CN1CCc2ccc(C(=O)CCCC3CCN(Cc4ccccc4C(=O)N4CCOCC4)CC3)cc2CC1 (as salt: hydrochloride) [Example 314, 1-[3-[(2-Methylphenyl)methyl]-2,3,4,5-tetrahydro-1H-3-benzazepin-7-yl]-4-[1-[[2-(morpholinocarbonyl)phenyl]methyl]-4-piperidinyl]-1-butanone Dihydrochloride]
138 to 144 °C	CC(=O)Nc1ccccc1CN1CCc2ccc(C(=O)CCCC3CCN(Cc4ccccc4Cl)CC3)cc2CC1 (as salt: hydrochloride) [Example 315, N-[2-[[7-[4-[1-[(2-chlorophenyl)methyl]-4-piperidinyl]butanoyl]-2,3,4,5-tetrahydro-1H-3-benzazepin-3-yl]methyl]phenyl]acetamide Dihydrochloride]
155 to 164 °C (dec.)	Nc1ccccc1CN1CCc2ccc(C(=O)CCCC3CCN(Cc4ccccc4Cl)CC3)cc2CC1 (as salt: hydrochloride) [Example 316, 1-[3-[(2-Aminophenyl)methyl]-2,3,4,5-tetrahydro-1H-3-benzazepin-7-yl]-4-[1-[(2-chlorophenyl)methyl]-4-piperidinyl]-1-butanone Trihydrochloride]
